Source: publication PMC12441861, “Next-Generation Lipid Prodrugs Orally Deliver Tenofovir via Enhanced Chylomicron Incorporation” (ACS Pharmacology & Translational Science, 2025)

Key:
Caco-2 cell-derived CMs = assay type: in vitro ADME, human; details: for increase in CM concentration compared to TXL / CM concentration relative to ω-unmodified BOG prodrug (21a vs 8a, 21b vs 8b): 20 h
Method: [formula] 1 Chylomicron (CM) Isolation and Drug Quantification Methods ^a a (1) Caco-2 cells were grown to confluence. (2) Lipid mix was added to media (final drug concentration of 10 μM), and cells were incubated for 4 h. (3) Cells were washed 3× with PBS. (4) Cells were incubated in fresh media overnight. (5) CM-containing media was collected. (6) Media was combined with a 1.20 g/mL NaCl solution in an ultracentrifugation tube, 500 μL H2O was carefully layered on top, and the mixture was centrifuged at 10,950 RCF for 3 h. (7) The CM-containing upper layer was carefully isolated with a fine-tip pipette. (8) Test drug was then extracted from the CM layer with 70% ACN and quantified using LC-MS/MS.
With the presence of CMs in isolated Caco-2 cell extracts confirmed and reproducibility validated across replicates and different drugs, we were eager to investigate drug incorporation during CM biogenesis in vitro. Accordingly, we added test compound (Figure ) to differentiated Caco-2 cells along with the lipid mix to a final test drug concentration of 10 μM. While 10 μM was selected as a standard concentration for these studies, higher concentrations could allow detection of other compounds with low CM association in future experiments. In either case, CMs secreted by Caco-2 cells can be isolated postincubation, and drug concentrations within CMs can be assessed using highly sensitive LC-MS/MS methodology. Positive (high c Log D) and negative (low c Log D) control compounds were selected to validate this assay. […] Given these properties, we expected CAB to readily package into CMs in vitro. […]. […] This sets the stage for quantitative comparisons of TXL and its functionalized analogs, which are detailed below.
At 14-days postconfluence, Caco-2 cells were incubated in a lipid mixture to induce secretion of CMs. For the lipid solution, oleic acid (50 mg), lecithin (40 mg), and sodium taurocholate (48 mg) were weighted out into an Eppendorf tube, and the volume was brought up to 900 μL with PBS, followed by vigorous vortexing to ensure sample homogeneity. This 100× lipid mixture was then diluted into growth media to achieve the desired concentrations (2 mM oleic acid, 1.36 mM lecithin, 1 mM sodium taurocholate) by adding 500 μL of the lipid mixture to 49.5 mL of media. The lipid-supplemented media was thoroughly mixed and sterilized by filtration using a 250 mL sterile vacuum filter. For the drug-exposed CM experiments, each test compound was dissolved in 2 mM human serum albumin (HAS, Sigma, essentially fatty acid free) in DPBS, then added to 10 mL aliquots of lipid-containing media to achieve a final concentration of 10 μM. Subsequently, lipid-containing media was added to Caco-2 cells and incubated for 4 h at 37 °C. After incubation, cells were washed twice with PBS then incubated for 4, 8, or 20 h at 37 °C in fresh, colorless growth medium. Media was collected into 15 mL falcon tubes and centrifuged at 2000g to remove cell debris. Postcentrifugation, the supernatant was transferred to 50 mL Nalgene Oak Ridge High-Speed PPCO Centrifuge Tubes. Next, to adjust the density for ultracentrifugation, 1.19 g of NaCl in 2 mL of deionized (DI) H2O were added to reach a final volume of 5 mL, corresponding to a density of 1.20 g/mL. This mixture was dissolved by vortexing and balanced by weight. 500 μL of DI H2O was carefully overlaid onto the mixture. Ultracentrifugation was performed for 2 h and 30 min at 10,920 relative centrifugal force (RCF). Immediately after centrifugation, the top 500 μL layer, containing CMs, was carefully collected using a gel-loading pipet tip.
To an aliquot of CM extract was added an equal volume of ACN into 1.5 mL Eppendorf tubes. Tubes were shaken for 1 h at rt then centrifuged at 15,000 RCF to remove debris. The clear supernatant was transferred to a glass vial and concentrated under reduced pressure to yield a dry solid. Sample was then reconstituted in 70% ACN in H2O, filtered and then analyzed. […]

Cytotoxicity, MTT assay = details: human
Method: To measure cytotoxicity, HeLa-derived TZM-bl cells , were treated with serial dilutions of each drug, and viability was assessed after 48 h. Two methods were used: an ATP luminescence assay, which measures cellular ATP levels as an indicator of metabolic activity (compounds 8a–d), and an MTT assay, which evaluates cell viability via mitochondrial enzymatic activity (compounds 15b, 21a, and 21b).
The TZM-bl cell line (BEI Resources, ARP-8129) was used to evaluate both cell viability and HIV pseudovirus infectivity reduction. Cytotoxicity in this cell line was measured via two methods. The first method, an ATP luminescence assay, was used for compounds 15a, 15b, 21a, and 21b as such: 6000 TZM-bl cells per well were seeded in a 96-well plate and incubated at 37 °C with 5% CO2 for 24 h. Compounds were prepared as serial dilutions (final concentrations of 1, 0.2, 0.04, 0.008, and 0.0016 μM) in complete DMEM with DEAE-Dextran at 40 μg/mL to mimic HIV infectivity conditions. Solutions were added to the cells and incubated for another 48 h. Viability was assessed using the Promega Cell Titer Glow (CTG) Assay (cat No. G9242) by adding a 50% PBS-CTG solution to each well and measuring luminescence, which correlates with ATP levels, on an Agilent BioTek Synergy HT reader. Cytotoxicity of compounds 8a–d was determined using a colorimetric assay based the conversion of MTT (3-(4,5-dimethylthiazol-2-yl)-2,5-diphenyltetrazolium bromide) to formazan as described previously. TZM-bl cells were plated into 96-well tissue culture plates 1 day prior to performing the MTT assay. A series of 10 3-fold dilutions of each compound was performed from a starting concentration of 10 mM and each dilution was tested for a reduction in cell viability according to the manufacturer’s instructions (CyQuant MTT Cell Viability Assay, ThermoFisher, V13154). Wells containing TZM-bl cells with media only were used as a control. Briefly, serial dilutions of each test compound were added to the plated TZM-bl cells. At 48 h, the media was removed and replaced with 100 mL of fresh culture medium. 10 mL of 12 mM MTT solution was added to each well and incubated at 37 °C for 4 h. 85 mL of supernatant was then removed from each well and replaced with 50 mL of DMSO. Following a 10 min incubation at 37 °C, the absorbance of each well was determined at 540 nm using a Biotek Synergy Neo2 multimode reader and Gen5 v3.02 software.

Structure (SMILES) | increase in CM concentration compared to TXL (Caco-2 cell-derived CMs; 10 μM) [fold] | CC50 at 48 h (Cytotoxicity, MTT assay) [µM] | detection of compound in CM extract by LC-MS/MS (Caco-2 cell-derived CMs; 10 μM test drug, Caco-2 cells) | concentration in CMs compared with BOG prodrugs (Caco-2 cell-derived CMs; 8 h, 10 μM) | CM concentration relative to ω-unmodified BOG prodrug (21a vs 8a, 21b vs 8b) (Caco-2 cell-derived CMs; 10 μM)
C[C@H](Cn1cnc2c(N)ncnc21)OCP(=O)(O)OCCCOCCCCCCCCCCCCCCCC(F)(F)F [15a, Ammonium[(1R)-2-(6-aminopurin-9-yl)-1-methyl-ethoxy]methyl-[3-(16,16,16-trifluorohexadecoxy)propoxy]phosphinate] | 2.4 | > 10 | – | – | –
CCCCCCCCCCCCCCCCOCCCOP(=O)(O)CO[C@H](C)Cn1cnc2c(N)ncnc21 [TXL, hexadecyloxypropyl (HDP)-TFV, reference compound] | – | > 10 | successfully detected in CM isolates | significantly greater concentrations in CMs than all BOG substituted prodrugs | –
C[C@H](Cn1cnc2c(N)ncnc21)OCP(=O)(O)OC[C@H](COCCCCCCCCCCCCCCCC(F)(F)F)OCc1ccccc1 [21a, Ammonium[(1R)-2-(6-Aminopurin-9-yl)-1-methyl-ethoxy]methyl-[(2S)-2-benzyloxy-3-(16,16,16-trifluorohexadecoxy)propoxy]phosphinate] | 3.3 | – | – | – | approximately 1.8 fold
C[C@H](Cn1cnc2c(N)ncnc21)OCP(=O)(O)OC[C@H](COCCCCCCCCCCCCCCCCCC(F)(F)F)OCc1ccccc1 [21b, Ammonium[(1R)-2-(6-aminopurin-9-yl)-1-methyl-ethoxy]methyl-[(2S)-2-benzyloxy-3-(18,18,18-trifluorooctadecoxy)propoxy]phosphinate] | 3.8 | – | – | – | ~1.6 fold
